Measurements as given in patent publication US20040191913A1, “Method of evaluation of antioxidation ability by measuring redox balance in vivo” (priority 2002, published 2004).

Columns and labels:
[1] = Radical removability by magnetic spin resonator (attenuation of the DMPO-OOL signal); assay type: biochemical; details: 10 mM DMPO; for IC50 / 50% Inhibition Concentration: DMPO-OOL signal intensity, 1 minute after start of reaction; for IC50: read-out: 50% Inhibition Concentration
Procedure: The antioxidation index is obtained by indexing the radical removability, R that is determined by the use of a magnetic spin resonator in the manner mentioned below, within a range of from 1 to 10points. The determination with a magnetic spin resonator is effected as follows: The DMPO-OOL radical resulting from trapping of a butylhydroperoxide radical by a spin trapping agent, 5,5-dimethyl-1-pyrroline-N-oxide (DMPO) is quantitatively determined by the use of a magnetic spin resonator, and a serum sample is added to the system to determine the degree of signal intensity attenuation in the system. […] Radical Removability R=[DMPO]/50% Inhibition Concentration.
Preferably, the determination with a magnetic spin resonator is effected as follows: 100 mM butylhydroperoxide, 50 μg/ml methemoglobin, 10 mM DMPO and 0.1 mM diethylenetriamine-pentaacetic acid are reacted in 10 mM phosphate buffer. One minute after the start of the reaction, the DMPO-OOL signal intensity is measured by the use of a magnetic spin resonator.

[2] = system: Leptin receptor-defective, natural diabetic db/db mice; experiment: Animal test: 0.02% astaxanthin feed in diabetic db/db mice; assay type: in vivo
Source text: The quantitative determination of 8-OHdG is effected through enzyme immunoassay using a monoclonal antibody.
Leptin receptor-defective, natural diabetic db/db mice (animal model similar to human type-II diabetes) were used in the test. […] A control group of leptin receptor-defective, natural diabetic db/db mice was not given astaxanthin.

Compound | R (Radical Removability = [DMPO]/50% Inhibition Concentration) [1] | IC50 [1] | other results
O=C1O[C@H]([C@@H](O)CO)C(O)=C1O [Ascorbic acid] | 227 | 44 µM | –
CC1=C(/C=C/C(C)=C/C=C/C(C)=C/C=C/C=C(C)/C=C/C=C(C)/C=C/C2=C(C)C(=O)[C@@H](O)CC2(C)C)C(C)(C)C[C@H](O)C1=O [Astaxanthin, astaxanthin] | – | – | 8-OHdG discharge in urine (in words) ([2]; 3 months): significantly inhibits; development of diabetic nephropathy (in words) ([2]; 3 months): significantly retards; 8-OHdG in Urine ([2]; fed for 3 months, enzyme immunoassay, p < 0.05 vs control group): 135.6 ± 41.1 ng/day; Albumin in Urine ([2]; fed for 3 months, p < 0.05 vs control group): 68.6 ± 13.4 µg/day
N[C@@H](CCC(=O)N[C@@H](CS)C(=O)NCC(=O)O)C(=O)O [Glutathione] | 24 | 410 µM | –
O=c1[nH]c(=O)c2[nH]c(=O)[nH]c2[nH]1 [Uric acid] | 28 | 360 µM | –
Cc1c(C)c2c(c(C)c1O)CC[C@@](C)(CCC[C@H](C)CCC[C@H](C)CCCC(C)C)O2 [α-Tocopherol] | 14 | 700 µM | –
CC1=C(/C=C/C(C)=C/C=C/C(C)=C/C=C/C=C(C)/C=C/C=C(C)/C=C/C2=C(C)CCCC2(C)C)C(C)(C)CCC1 [β-Carotene] | – | – | 50% Inhibition Concentration [1]: >0.2 mg/mL
Catalase | – | – | 50% Inhibition Concentration [1]: >4,000 U/ml
